# Values joined by “and” are separate entries in the source; they are usually repeats but may differ in a detail not shown here. Equal entries are not always repeated. “Also recorded” adds a separate entry of the source. Where two headings read alike, the source gives them in different places.
# Key:
# [1] = Pharmacokinetics after single i.v. or oral dose in rats; assay type: in vivo, Sprague-Dawley rats; details: rat; for bioavailability: read-out: BA (oral bioavailability)
# M2 muscarinic receptor = target: T1, M2 muscarinic receptor (Homo sapiens, UniProt P08172); experiment: R-SAT competitive antagonist assay; assay type: cell-based; design: expressed in transfected cells; host or cells: NIH/3T3; details: nr = no significant antagonist or inverse agonist activity up to 1 μM, nr* = nr but significant agonist activity
# T1 sequence (P08172 1-466): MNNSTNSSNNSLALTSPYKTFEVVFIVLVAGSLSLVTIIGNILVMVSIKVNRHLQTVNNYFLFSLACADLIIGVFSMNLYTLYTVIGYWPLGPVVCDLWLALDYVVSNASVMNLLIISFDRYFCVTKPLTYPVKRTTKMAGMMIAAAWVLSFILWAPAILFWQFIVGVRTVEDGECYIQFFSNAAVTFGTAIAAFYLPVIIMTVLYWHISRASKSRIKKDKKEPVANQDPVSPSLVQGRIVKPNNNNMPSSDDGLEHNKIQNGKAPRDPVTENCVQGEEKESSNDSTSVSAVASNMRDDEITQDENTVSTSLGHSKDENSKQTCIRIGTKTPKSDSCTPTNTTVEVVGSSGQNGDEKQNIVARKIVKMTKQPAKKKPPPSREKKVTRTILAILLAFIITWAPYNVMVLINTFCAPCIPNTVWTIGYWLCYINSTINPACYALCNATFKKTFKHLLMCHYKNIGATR
# M1 muscarinic receptor = target: T2, M1 muscarinic receptor (Homo sapiens, UniProt P11229); experiment: R-SAT agonist assay; assay type: cell-based; design: expressed in transfected cells; host or cells: NIH/3T3
# T2 sequence (P11229 1-460): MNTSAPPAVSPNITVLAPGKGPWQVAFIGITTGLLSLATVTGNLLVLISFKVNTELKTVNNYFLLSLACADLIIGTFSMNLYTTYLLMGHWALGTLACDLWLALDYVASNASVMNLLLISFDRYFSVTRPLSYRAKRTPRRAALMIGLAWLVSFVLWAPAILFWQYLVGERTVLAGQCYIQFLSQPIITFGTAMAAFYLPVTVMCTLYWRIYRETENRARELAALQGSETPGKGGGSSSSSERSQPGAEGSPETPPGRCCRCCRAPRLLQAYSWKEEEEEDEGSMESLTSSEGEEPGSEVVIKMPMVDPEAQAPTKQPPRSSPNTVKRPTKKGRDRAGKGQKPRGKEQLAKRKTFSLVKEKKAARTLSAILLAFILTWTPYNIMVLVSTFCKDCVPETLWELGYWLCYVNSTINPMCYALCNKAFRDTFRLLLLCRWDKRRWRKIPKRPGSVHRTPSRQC
# M1 receptors = M1 receptors (Homo sapiens, UniProt P11229); experiment: Ligand binding screen at 10 μM
# 5HT1B receptors = 5HT1B receptors (Homo sapiens, UniProt P28222); experiment: Ligand binding screen at 10 μM
# α2 receptors = experiment: Ligand binding screen at 10 μM
# [2] = tested on: MAPK in CA1 region of hippocampus (M1 receptor mediated)
# 5HT6 receptors = 5HT6 receptors (Homo sapiens, UniProt P50406); experiment: Ligand binding screen at 10 μM
# M5 muscarinic receptor = target: T3, M5 muscarinic receptor (Homo sapiens, UniProt P08912); experiment: R-SAT competitive antagonist assay; details: nr = no significant antagonist or inverse agonist activity up to 1 μM, nr* = nr but significant agonist activity
# T3 sequence (P08912 1-532): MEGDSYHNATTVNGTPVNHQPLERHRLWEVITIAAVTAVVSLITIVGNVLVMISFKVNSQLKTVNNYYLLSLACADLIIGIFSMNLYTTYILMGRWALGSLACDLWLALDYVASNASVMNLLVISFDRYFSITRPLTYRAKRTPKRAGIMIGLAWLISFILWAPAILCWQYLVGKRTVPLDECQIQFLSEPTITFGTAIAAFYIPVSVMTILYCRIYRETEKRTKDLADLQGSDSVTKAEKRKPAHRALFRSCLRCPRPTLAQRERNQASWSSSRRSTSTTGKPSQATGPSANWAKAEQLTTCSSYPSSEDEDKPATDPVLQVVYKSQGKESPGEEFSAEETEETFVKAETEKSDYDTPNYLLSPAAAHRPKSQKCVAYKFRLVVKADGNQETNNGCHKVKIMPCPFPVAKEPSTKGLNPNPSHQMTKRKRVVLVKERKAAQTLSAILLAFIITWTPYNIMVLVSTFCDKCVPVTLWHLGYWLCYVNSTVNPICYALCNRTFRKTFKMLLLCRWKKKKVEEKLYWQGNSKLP
# H1 histamine receptor = H1 histamine receptor (Homo sapiens, UniProt P35367); experiment: R-SAT competitive antagonist assay
# [3] = tested on: apomorphine-induced climbing; experiment: Reversal of apomorphine-induced climbing; details: s.c.
# Ca^2+ channels = experiment: Ligand binding screen at 10 μM
# [4] = male, Sprague-Dawley, plasma, iv, 1 mg/kg, Plasma concentration after NDMC administration, NDMC i.v. 1 mg/kg, mean ± SD
# [5] = male, Sprague-Dawley, plasma, iv, 1 mg/kg, Plasma concentration of compound measured after clozapine administration, clozapine i.v. 1 mg/kg, mean ± SD
# [6] = male, Sprague-Dawley, plasma, po, 10 mg/kg, Plasma concentration after NDMC administration, NDMC p.o. 10 mg/kg, mean ± SD, two p.o. groups
# [7] = male, Sprague-Dawley, plasma, po, 10 mg/kg, Plasma concentration after NDMC administration, NDMC p.o. 10 mg/kg, mean ± SD
# [8] = male, Sprague-Dawley, plasma, po, 10 mg/kg, Plasma concentration of compound measured after clozapine administration, clozapine p.o. 10 mg/kg, mean ± SD
# [9] = NDMC p.o. 10 mg/kg, mean ± SD, two p.o. groups, 10 mg/kg
# Sequence of H1 histamine receptor (P35367 whole entry): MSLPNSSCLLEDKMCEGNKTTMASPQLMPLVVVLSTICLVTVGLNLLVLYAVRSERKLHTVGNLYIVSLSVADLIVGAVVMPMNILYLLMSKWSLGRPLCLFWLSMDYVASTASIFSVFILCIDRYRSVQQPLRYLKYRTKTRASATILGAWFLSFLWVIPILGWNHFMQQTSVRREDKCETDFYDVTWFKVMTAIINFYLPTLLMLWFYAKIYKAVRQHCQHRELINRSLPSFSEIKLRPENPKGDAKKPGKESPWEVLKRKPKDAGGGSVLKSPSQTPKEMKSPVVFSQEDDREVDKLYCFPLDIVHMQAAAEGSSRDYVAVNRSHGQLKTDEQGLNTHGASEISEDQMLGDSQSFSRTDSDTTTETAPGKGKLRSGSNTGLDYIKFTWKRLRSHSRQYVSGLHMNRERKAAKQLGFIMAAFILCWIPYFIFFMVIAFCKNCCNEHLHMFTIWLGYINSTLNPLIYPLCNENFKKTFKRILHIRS
# Sequence of 5HT1B receptors (P28222 whole entry): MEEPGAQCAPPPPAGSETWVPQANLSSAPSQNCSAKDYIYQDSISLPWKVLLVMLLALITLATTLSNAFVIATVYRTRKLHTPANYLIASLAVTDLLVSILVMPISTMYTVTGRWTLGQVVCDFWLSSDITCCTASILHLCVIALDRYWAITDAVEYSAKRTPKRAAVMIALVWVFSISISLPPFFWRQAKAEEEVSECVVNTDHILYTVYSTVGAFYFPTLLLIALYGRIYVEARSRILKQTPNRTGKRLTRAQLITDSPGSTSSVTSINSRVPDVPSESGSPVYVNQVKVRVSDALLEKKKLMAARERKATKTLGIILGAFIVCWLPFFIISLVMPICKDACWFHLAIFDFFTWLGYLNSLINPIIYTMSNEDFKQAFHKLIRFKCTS
# Sequence of 5HT6 receptors (P50406 whole entry): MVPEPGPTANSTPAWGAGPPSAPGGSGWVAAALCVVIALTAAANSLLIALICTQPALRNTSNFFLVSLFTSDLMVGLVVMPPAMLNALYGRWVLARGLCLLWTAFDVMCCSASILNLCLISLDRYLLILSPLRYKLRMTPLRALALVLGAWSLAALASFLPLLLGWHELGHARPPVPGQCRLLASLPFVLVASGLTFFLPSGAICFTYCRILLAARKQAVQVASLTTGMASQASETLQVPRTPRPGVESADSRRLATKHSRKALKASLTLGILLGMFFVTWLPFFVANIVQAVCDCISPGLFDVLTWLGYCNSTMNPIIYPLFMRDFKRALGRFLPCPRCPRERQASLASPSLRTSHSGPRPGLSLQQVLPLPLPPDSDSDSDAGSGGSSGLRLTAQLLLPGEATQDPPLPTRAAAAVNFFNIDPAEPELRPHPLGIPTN
smiles,measurement,setting,value
"Clc1ccc2c(c1)N=C(N1CCNCC1)c1ccccc1N2 [NDMC, 8-chloro-11-(1-piperazinyl)-5H-dibenzo [b,e][1,4] diazepine]",half-life,"[1]; male, Sprague-Dawley, plasma, iv, 1 mg/kg",39.3 min
same,concentration at 10 min,[1]; [4],540 ± 46 ng/mL
same,concentration at 30 min,[1]; [4],276 ± 30 ng/mL
same,concentration at 60 min,[1]; [4],126 ± 38 ng/mL
same,concentration at 120 min,[1]; [4],33.7 ± 11.4 ng/mL
same,concentration at 180 min,[1]; [4],11.7 ± 3.8 ng/mL
same,concentration at 240 min,[1]; [4],5.3 ± 0.3 ng/mL
same,concentration at 30 min,[1]; [5],2.8 ± 1.2 ng/mL
same,concentration at 60 min,[1]; [5],4 ± 1.5 ng/mL
same,concentration at 120 min,[1]; [5],2.3 ± 1 ng/mL
same,concentration at 180 min,[1]; [5],0.7 ± 0.1 ng/mL
same,concentration at 240 min,[1]; [5],0.8 ± 0.6 ng/mL
same,AUC,"[1]; male, Sprague-Dawley, plasma, iv, 1 mg/kg, after NDMC i.v. 1 mg/kg, read-out: Average AUC (converted)",456 ng·h/mL
same,Cmax,"[1]; male, Sprague-Dawley, plasma, iv, 1 mg/kg, after NDMC i.v. 1 mg/kg, read-out: Cmax",756 ng/mL
same,Tmax,"[1]; male, Sprague-Dawley, plasma, iv, 1 mg/kg, after NDMC i.v. 1 mg/kg, read-out: Tmax",0 min
same,AUC,"[1]; male, Sprague-Dawley, plasma, iv, 1 mg/kg, after clozapine i.v. 1 mg/kg, read-out: Average AUC of compound measured (converted)",8.16 ng·h/mL
same,Cmax,"[1]; male, Sprague-Dawley, plasma, iv, 1 mg/kg, after clozapine i.v. 1 mg/kg, read-out: Cmax of compound measured",3.99 ng/mL
same,Tmax,"[1]; male, Sprague-Dawley, plasma, iv, 1 mg/kg, after clozapine i.v. 1 mg/kg, read-out: Tmax of compound measured (converted)",60 min
same,Vd,"[1]; male, Sprague-Dawley, plasma, iv, 1 mg/kg, read-out: Vss",1.47 L/kg
same,concentration at 10 min,[1]; [6],305 ± 101 ng/mL
same,concentration at 30 min,[1]; [6],582 ± 265 ng/mL
same,concentration at 60 min,[1]; [6],481 ± 181 ng/mL
same,concentration at 120 min,[1]; [7],227 ± 75 ng/mL
same,concentration at 180 min,[1]; [7],170 ± 26 ng/mL
same,concentration at 240 min,[1]; [7],122 ± 54 ng/mL
same,concentration at 120 min,[1]; [8],42.5 ± 15.1 ng/mL
same,concentration at 180 min,[1]; [8],13.4 ± 2.54 ng/mL
same,concentration at 240 min,[1]; [8],7.1 ± 0.5 ng/mL
same,AUC,"[1]; male, Sprague-Dawley, plasma, po, 10 mg/kg, after NDMC p.o. 10 mg/kg, read-out: Average AUC (converted)",1140 ng·h/mL
same,AUC,"[1]; male, Sprague-Dawley, plasma, po, 10 mg/kg, after clozapine p.o. 10 mg/kg, read-out: Average AUC of compound measured (converted)",270 ng·h/mL
same,Tmax,"[1]; male, Sprague-Dawley, plasma, po, 10 mg/kg, after clozapine p.o. 10 mg/kg, read-out: Tmax of compound measured (converted)",30 min
same,bioavailability,"[1]; male, Sprague-Dawley, serum, oral, 10 mg/kg",~25%
same,Cmax,"[1]; male, Sprague-Dawley, serum, po, 10 mg/kg, after NDMC p.o. 10 mg/kg, read-out: Cmax",582 ng/mL
same,Tmax,"[1]; male, Sprague-Dawley, serum, po, 10 mg/kg, after NDMC p.o. 10 mg/kg, read-out: Tmax",≤ 30 min
same,Cmax,"[1]; male, Sprague-Dawley, serum, po, 10 mg/kg, after clozapine p.o. 10 mg/kg, read-out: Cmax of compound measured",194 ng/mL
same,bioavailability,"[1]; male, Sprague-Dawley, serum, po, 10 mg/kg",25%
same,"Plasma concentration after NDMC administration, 10 min",[1]; [9],277 ± 57 ng/mL
same,"Plasma concentration after NDMC administration, 30 min",[1]; [9],576 ± 161 ng/mL
same,"Plasma concentration after NDMC administration, 60 min",[1]; [9],614 ± 60 ng/mL
same,CLs,[1]; after NDMC i.v. 1 mg/kg,36.2 mL/min/kg
same,"pKi M2, competitive antagonist",M2 muscarinic receptor,nr*
same,Ki,M1 muscarinic receptor,50 nM
same,EC50,"M1 muscarinic receptor; M1 pEC50, R-SAT agonist",55 nM and 50.1 nM
same,inhibition at 10 µM,M1 receptors,≥ 90%
same,inhibition at 10 µM,5HT1B receptors,≥ 90%
same,"inhibition of binding, α2",α2 receptors,≥ 90%
same,MAPK activation in CA1 region of hippocampus,"[2]; s.c. 3, 10, 30 and 100 mg/kg, killed two hours later, phospho-MAPK immunoreactivity","stimulation of MAPK activity at all doses in a dose-dependent manner; also recorded: Robust activation was observed, at a dose of 30 mg/kg"
same,dose with statistically significant M1 receptor activation (phospho-MAPK),"[2]; s.c., optical density of CA1 region, vs vehicle",≥ 30 mg/kg
same,inhibition at 10 µM,5HT6 receptors,≥ 90%
same,"pKi M5, competitive antagonist",M5 muscarinic receptor,nr*
same,Ki,H1 histamine receptor,6.31 nM
same,"pKi H1, competitive antagonist","H1 histamine receptor; R-SAT, nr = no significant antagonist or inverse agonist activity up to 1 μM, nr* = nr but significant agonist activity",8.2 ± 0.2
same,"minimal effective dose, reduction of apomorphine-induced climbing",[3],> 100 mg/kg
same,"inhibition of binding, Ca^2+ channels",Ca^2+ channels,≥ 90%

# Source: patent publication US20050085463A1 (priority 2003, published 2005)
